Assay results: patent US5939527A, “Tetrapeptides as antitumor agents” (BASF Aktiengesellschaft, priority 1996, dated 1999)

Assays:
[1] = test system: HT-29 colon carcinoma cells; assay type: cell-based; settings: HT-29 cells, 48 hours incubation, MTT; read-out: IC50 (concentration giving a T/C of 50% growth inhibition)
[2] = test system: Human breast tumors (MX-1); assay: In vivo activity, MX-1 human breast tumor xenograft in athymic nude mice; settings: subcutaneous injection, 10, 20 or 30 mg/kg, three doses per week, days 5-23
Method: Compounds of this invention were further tested in pre-clinical assays for in vivo activity which is indicative of clinical utility. Such assays were conducted with nude mice into which tumor tissue, preferably of human origin, had been transplanted (xenografted), as is well known in this field. Test compounds were evaluated for anti-tumor efficacy following administration to the xenograft-bearing mice.
Human breast tumors (MX-1) which had been grown in athymic nude mice were transplanted into new recipient mice, using tumor fragments which were about 50 mg in size. The day of transplantation was designated as day 0. The mice were divided into four groups of 5-10 mice each. An untreated group served as the control. Three groups were treated by subcutaneous injection of compound 1, with each group receiving three doses per week of 30, 20 or 10 mg/kg body weight. Doses were administered on days 5, 7, 9, 12, 14, 16, 19, 21 and 23 post post-implantation.
Tumor diameters and body weights were measured twice weekly. Tumor volumes were calculated using the diameters measured with Vernier calipers, and the formula
(length×width^2)/2=mm^3 of tumor volume
Mean tumor volumes are calculated for each treatment group, and T/C values determined for each group relative to the untreated control tumors.

[3] = test system: four different human lymphoma cell lines; settings: cited from earlier work
[4] = synthetic Dolastatin 10; cited from earlier work
[5] = test system: P388 lymphocytic leukemia (PS system) cell line; settings: cited from earlier work

| Molecule | IC50 [1] | inhibition of tumor growth (tumor volume versus post-implantation time) [2] | inhibition of growth of human lymphoma cell lines [3] | solubility in aqueous systems [4] | growth inhibition of P388 cell line [5] |
| --- | --- | --- | --- | --- | --- |
| CO[C@H](CC(=O)N1CCC[C@H]1C(=O)Nc1nccs1)[C@H](C(C)C)N(C)C(=O)[C@@H](NC(=O)[C@H](C(C)C)N(C)C)C(C)C [Compound 1, (3R,4S)-4-[N-(N,N-dimethyl-L-valyl-L-valyl)-N-methylamino]-3-methoxy-5-methyl-hexanoyl prolyl-thiazolyl(2)-amide] | 60 nM | significant dose-dependent inhibition of tumor growth |  |  |  |
| Dolastatin 10 |  |  | effectively inhibit | poor solubility |  |
| Dolastatin 15 |  |  | effectively inhibit |  | inhibits the growth |
